Assay results taken from US20230100838A1 (Revolution Medicines, Inc., priority 2019, published 2023).

Assays:
Assay type in all cases: binding
[1] = molecular target: K-Ras G12S (Homo sapiens, UniProt P01116, G12S); experiment: K-Ras G12S cross-linking assay (comparable procedure, conjugate formation, TOF mass spectrometry); set-up: key: 0: No observed x-linking
Protocol: Protocol: K-Ras G12D(GDP) Cross-Linking Assay
Note: while the following protocol outlines the procedure for K-Ras G12D(GDP), a person of skill in the art may substitute other Ras proteins, and may also substitute a non-hydrolyzable GTP analog for GDP to study GTP bound Ras protein.
GDP-loaded K-Ras (1-169) G12D, C51S, C80L, C118S and GDP-loaded K-Ras (1-169) C51S, C80L, C118S were adjusted to 50 μM in K-Ras assay buffer (12.5 mM HEPES, 75 mM NaCl and 1 mM MgCl2 at pH 7.4). A 5 μL aliquot of each protein solution was added to each well of a 96-well microplate containing 40 μL of assay buffer. Initial compound stocks were prepared in DMSO at 100 times their final assay concentration. Compounds were then diluted 10-fold into K-Ras assay buffer to 10 times their final concentration. A 5 μL aliquot of each diluted compound solution was added to each protein solution in the 96-well microplate to initiate the reaction, which then proceeded at room temperature. Typical final compound concentrations were 2, 10, and 25 μM. At each time point, the reactions were analyzed immediately or quenched with 5 μL of a 5% formic acid solution and kept at 4° C. until analysis. Typical assay endpoints were 1 and 24 h.
Data collection took place on an Agilent 6230 TOF Mass Spectrometer. Complete reactions were injected onto a C4 reverse-phase column to separate protein from buffer components prior to entering the mass spectrometer. The proteins were eluted from the column by increasing acetonitrile fraction in the mobile phase and fed directly into the mass analyzer. Initial analysis of raw data took place in Agilent MassHunter BioConfirm software and consisted of deconvolution of multiple protein charge states with the maximum entropy algorithm, with a mass step of 1 Da. The heights of all deconvoluted protein masses were exported for further data analysis. The percent modification of each protein was then determined by calculating the peak height of the covalently modified K-Ras species as a percentage of the sum total of K-Ras protein peak height.

[2] = molecular target: T1, GDP-loaded K-Ras (1-169) G12D, C51S, C80L, C118S (Homo sapiens, UniProt P01116, C118S/C51S/C80L/G12D); experiment: K-Ras G12D(GDP) cross-linking assay (conjugate formation, TOF mass spectrometry); set-up: key: 0: No observed x-linking; +: 0 < x ≤ 20; ++: 20 < x ≤ 40; +++: 40 < x ≤ 100; conditions: percent covalently modified K-Ras by MS, room temperature, typical compound conc. 2, 10, 25 μM, endpoints 1 and 24 h
T1 construct: GDP-loaded K-Ras (1-169) G12D, C51S, C80L, C118S
Outline: (§1)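 5 μM protein (final, from 50 μM) in HEPES/NaCl/MgCl2 buffer pH 7.4 with compound typically at 2, 10 and 25 μM, room temperature, 1 and 24 h endpoints; formic acid quench. Intact-protein LC–TOF MS; percent modification is covalent adduct peak height over total K-Ras peak height.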

[3] = molecular target: T2, GDP-loaded K-Ras (1-169) C51S, C80L, C118S (Homo sapiens, UniProt P01116, C118S/C51S/C80L); experiment: K-Ras WT (GDP) cross-linking assay (conjugate formation, TOF mass spectrometry); set-up: key: 0: No observed x-linking; +: 0 < x ≤ 20; ++: 20 < x ≤ 40; +++: 40 < x ≤ 100; conditions: percent covalently modified K-Ras by MS, room temperature, typical compound conc. 2, 10, 25 μM, endpoints 1 and 24 h
T2 construct: GDP-loaded K-Ras (1-169) C51S, C80L, C118S
Outline: as §1

[4] = Table 5, percent covalently modified K-Ras by MS
[5] = Table 4, percent covalently modified K-Ras by MS

SMILES | G12S x-linking (%) [1, 4] | G12D x-linking (%) ([2]; Table 5) | WT x-linking (%) ([3]; Table 5) | G12S x-linking (%) [1, 5] | G12D x-linking (%) ([2]; Table 4) | WT x-linking (%) ([3]; Table 4)
Cc1cccc2cccc(N3CCc4c(nc(OC[C@@H]5CCCN5C)nc4N4CCC(N=C=NCCCn5ccnc5)CC4)C3)c12 [Example 88, N-(3-(1H-imidazol-1-yl)propyl)-N-(1-(7-(8-methylnaphthalen-1-yl)-2-(((S)-1-methylpyrrolidin-2-yl)methoxy)-5,6,7,8-tetrahydropyrido[3,4-d]pyrimidin-4-yl)piperidin-4-yl)methanediimine] | ++ (10 < x ≤ 100) | +++ (40 < x ≤ 100) | ++ (20 < x ≤ 100) |  |  | 
Fc1ccccc1-c1c(Cl)cc2c(N3CCC(N=C=Nc4ccccc4)CC3)ncnc2c1F [Example 2, N-(1-(6-chloro-8-fluoro-7-(2-fluorophenyl)quinazolin-4-yl)piperidin-4-yl)-N-phenylmethanediimine] |  |  |  | + (0 < x ≤ 10) | + (0 < x ≤ 20) | + (0 < x ≤ 20)
Cc1cccc2cccc(N3CCc4c(nc(OC[C@@H]5CCCN5C)nc4N4CCC(C(O)(O)C(F)(F)F)CC4)C3)c12 [Example 51, (S)-2,2,2-trifluoro-1-(1-(7-(8-methylnaphthalen-1-yl)-2-((1-methylpyrrolidin-2-yl)methoxy)-5,6,7,8-tetrahydropyrido[3,4-d]pyrimidin-4-yl)piperidin-4-yl)ethane-1,1-diol] |  |  |  | + (0 < x ≤ 10) | + (0 < x ≤ 20) | + (0 < x ≤ 20)
COCCN=C=N[C@H]1C[C@H](Nc2nc(OC[C@@H]3CCCN3C)nc3c2CCN(c2cccc4cccc(C)c24)C3)C1 [Example 72, N-((1r,3S)-3-((((2-methoxyethyl)imino)methylene)amino)cyclobutyl)-7-(8-methylnaphthalen-1-yl)-2-(((S)-1-methylpyrrolidin-2-yl)methoxy)-5,6,7,8-tetrahydropyrido[3,4-d]pyrimidin-4-amine] | ++ (10 < x ≤ 100) | +++ (40 < x ≤ 100) | ++ (20 < x ≤ 100) |  |  | 
CSCCCN=C=NC1CCN(c2nc(OC[C@@H]3CCCN3C)nc3c2CCN(c2cccc4cccc(C)c24)C3)CC1 [Example 93, N-(1-(7-(8-methylnaphthalen-1-yl)-2-(((S)-1-methylpyrrolidin-2-yl)methoxy)-5,6,7,8-tetrahydropyrido[3,4-d]pyrimidin-4-yl)piperidin-4-yl)-N-(3-(methylthio)propyl)methanediimine] | + (0 < x ≤ 10) | ++ (20 < x ≤ 40) | + (0 < x ≤ 20) |  |  | 
Cc1cccc2cccc(N3CCc4c(nc(OC[C@@H]5CCCN5C)nc4N4CCN(C(=O)[C@@H]5CN5)[C@@H](CC#N)C4)C3)c12 [Example 64, 2-((S)-1-((S)-aziridine-2-carbonyl)-4-(7-(8-methylnaphthalen-1-yl)-2-(((S)-1-methylpyrrolidin-2-yl)methoxy)-5,6,7,8-tetrahydropyrido[3,4-d]pyrimidin-4-yl)piperazin-2-yl)acetonitrile] | + (0 < x ≤ 10) | + (0 < x ≤ 20) | + (0 < x ≤ 20) |  |  | 
CN(CCN=C=NCc1ccccc1)c1ncnc2c(F)c(-c3ccccc3F)c(Cl)cc12 [Example 8, N-(2-(((benzylimino)methylene)amino)ethyl)-6-chloro-8-fluoro-7-(2-fluorophenyl)-N-methylquinazolin-4-amine] |  |  |  | + (0 < x ≤ 10) | + (0 < x ≤ 20) | + (0 < x ≤ 20)
O=C(C1CN1)N1CCN(c2ncnc3c(F)c(-c4ccccc4F)c(Cl)cc23)CC1 (stereo not drawn) [Example 16, aziridin-2-yl(4-(6-chloro-8-fluoro-7-(2-fluorophenyl)quinazolin-4-yl)piperazin-1-yl)methanone] |  |  |  | + (0 < x ≤ 10) | + (0 < x ≤ 20) | + (0 < x ≤ 20)
Cc1cccc2cccc(N3CCc4c(nc(OC[C@@H]5CCCN5C)nc4N4CCC(N=C=NC5CCN(C)CC5)CC4)C3)c12 [Example 83, N-(1-(7-(8-methylnaphthalen-1-yl)-2-(((S)-1-methylpyrrolidin-2-yl)methoxy)-5,6,7,8-tetrahydropyrido[3,4-d]pyrimidin-4-yl)piperidin-4-yl)-N-(1-methylpiperidin-4-yl)methanediimine] | ++ (10 < x ≤ 100) | +++ (40 < x ≤ 100) | ++ (20 < x ≤ 100) |  |  | 
COc1ccc(CN=C=NC2CCN(c3nc(OC[C@@H]4CCCN4C)nc4c3CCN(c3cccc5cccc(C)c35)C4)CC2)cc1 [Example 50, N-(4-methoxybenzyl)-N-(1-(7-(8-methylnaphthalen-1-yl)-2-(((S)-1-methylpyrrolidin-2-yl)methoxy)-5,6,7,8-tetrahydropyrido[3,4-d]pyrimidin-4-yl)piperidin-4-yl)methanediimine] |  |  |  | + (0 < x ≤ 10) | + (0 < x ≤ 20) | + (0 < x ≤ 20)
COCCN=C=N[C@H]1CC[C@@H](N(C)c2nc(OC[C@@H]3CCCN3C)nc3c2CCN(c2cccc4cccc(C)c24)C3)CC1 [Example 79, N-((1s,4R)-4-((((2-methoxyethyl)imino)methylene)amino)cyclohexyl)-N-methyl-7-(8-methylnaphthalen-1-yl)-2-(((S)-1-methylpyrrolidin-2-yl)methoxy)-5,6,7,8-tetrahydropyrido[3,4-d]pyrimidin-4-amine] | ++ (10 < x ≤ 100) | +++ (40 < x ≤ 100) | ++ (20 < x ≤ 100) |  |  | 
CN=C=NC1CCN(c2ncnc3c(F)c(-c4ccccc4F)c(Cl)cc23)CC1 [Example 4, N-(1-(6-chloro-8-fluoro-7-(2-fluorophenyl)quinazolin-4-yl)piperidin-4-yl)-N-methylmethanediimine] |  |  |  | ++ (10 < x ≤ 100) | + (0 < x ≤ 20) | + (0 < x ≤ 20)
Cc1cccc2cccc(N3CCc4c(nc(OC[C@@H]5CCCN5C)nc4N4CCN(C5=NCCO5)[C@@H](CC#N)C4)C3)c12 [Example 38, 2-((S)-1-(4,5-dihydrooxazol-2-yl)-4-(7-(8-methylnaphthalen-1-yl)-2-(((S)-1-methylpyrrolidin-2-yl)methoxy)-5,6,7,8-tetrahydropyrido[3,4-d]pyrimidin-4-yl)piperazin-2-yl)acetonitrile] |  |  |  | 0 | 0 | 0
Cc1cccc2cccc(N3CCc4c(nc(OC[C@@H]5CCCN5C)nc4NCCN(C)C4=NCCO4)C3)c12 [Example 41, (S)—N^1-(4,5-dihydrooxazol-2-yl)-N^1-methyl-N^2-(7-(8-methylnaphthalen-1-yl)-2-((1-methylpyrrolidin-2-yl)methoxy)-5,6,7,8-tetrahydropyrido[3,4-d]pyrimidin-4-yl)ethane-1,2-diamine] |  |  |  | 0 | 0 | 0
Fc1ccccc1-c1c(Cl)cc2c(N3CCN(C4=NCCO4)CC3)ncnc2c1F [Example 14, 2-(4-(6-chloro-8-fluoro-7-(2-fluorophenyl)quinazolin-4-yl)piperazin-1-yl)-4,5-dihydrooxazole] |  |  |  | + (0 < x ≤ 10) | + (0 < x ≤ 20) | + (0 < x ≤ 20)
CCCN=C=NCCCN(C)c1nc(OC[C@@H]2CCCN2C)nc2c1CCN(c1cccc3cccc(C)c13)C2 [Example 30, N-methyl-7-(8-methylnaphthalen-1-yl)-2-(((S)-1-methylpyrrolidin-2-yl)methoxy)-N-(3-(((propylimino)methylene)amino)propyl)-5,6,7,8-tetrahydropyrido[3,4-d]pyrimidin-4-amine] |  |  |  | ++ (10 < x ≤ 100) | +++ (40 < x ≤ 100) | ++ (20 < x ≤ 100)
